The record followed here is patent US5468774A, “Tetronic, thiotetronic and tetramic acid derivatives as phospholipase A.sub ” (American Home Products Corporation, priority 1995, dated 1995).

For experiment [1], the system named is cyclooxygenase. Briefly: Resident murine peritoneal macrophage assay, PGE2 (cyclooxygenase). The experiment is classed as cell-based, murine (female Swiss Webster mice). The following applies: mouse peritoneal macrophages; for inhibition at 0.5 µM: Peritoneal macrophage. As to the method: (§1) The ability of the compounds of the invention to act as inhibitors of the enzymes 5-lipoxygenase and cyclooxygenase is measured in the resident murine peritoneal macrophage assay.
Resident peritoneal macrophages are collected from female Swiss Webster mice (49 days old, 20-25 gms, Buckshire) by lavaging with 7-8 ml Hanks Balanced Salt Solution (HBSS) without Ca^++ and Mg^++ (GIBCO). The lavage fluid from several mice is pooled and centrifuged at 4° C. for 10 minutes at 400 xg. The cell pellet is resuspended in Medium 199 (GIBCO) with HEPES buffer containing 100 μg/ml gentamicin. Two ml of the cell suspension (4×10^6 cells) are then plated on 35 mm culture dishes (Nunc).
A macrophage monolayer is established after a 1-1.5 hour incubation of the cells at 37° C. in an atmosphere of 95% O2 and 5% CO2. The monolayers are washed 2x with 2 ml HBDSS, containing Ca^++ and Mg^++ after which 2 ml Medium 199 supplemented with 10% freshly thawed heat-inactivated fetal bovine serum and 100 μg/ml gentamicin is added for an overnight incubation.
(§2) Residual serum and cellular debris are removed from the monolayers by washing 3x with 2 ml HBSS containing Ca^++ and Mg^++. Macrophages are preincubated for 5 minutes with 1 ml serum-free M199 containing 10 μl dimethyl sulfoxide (DMSO) vehicle or test compound prior to cell activation with zymosan ([…]) or arachidonic acid (AA) (2 μM). After 2 hours, the supernatants are removed and either assayed for LTC4 and PGE2 by radioimmunoassay (RIA) directly or stored at -20° C. In all cases, results are expressed as ng metabolite/4×10^6 cells.
(§3) Raw data (dpm) may be stored directly onto an "Autostart" tape using the HP85 in room C-096. The raw data are converted to ng metabolite/4-10^6cells using the standard curve by a "RIANAL" program (HP85) or a "NONLIN" program (HP9816). Results are then expressed as percent inhibition of zymosan induced, leukotriene or prostaglandin synthesis (control) using the equation: [formula]

The test system of experiment [2] is 5-lipoxygenase. As to the kind of experiment: Resident murine peritoneal macrophage assay, LTC4 (5-lipoxygenase). In kind it is cell-based, murine (female Swiss Webster mice). The following applies: for inhibition at 0.5 µM: Peritoneal macrophage. The protocol:
as §1
Resident peritoneal macrophages are collected from female Swiss Webster mice (49 days old, 20-25 gms, Buckshire) by lavaging with 7-8 ml Hanks Balanced Salt Solution (HBSS) without Ca^++ and Mg^++ (GIBCO). The lavage fluid from several mice is pooled and centrifuged at 4° C. for 10 minutes at 400 xg.
as §2, §3

The test system of experiment [3] is LTB4 biosynthesis in human neutrophils. Briefly: Inhibition of LTB4 biosynthesis in purified human neutrophils (in vitro phospholipase A2 assay). The note with it: Neutrophil, A23187 stimulated human PMN. The experiment is classed as cell-based. As to the method:
(§4) The compounds of the invention are tested in an in vitro phospholipase A2 assay to determine the ability of the compounds to inhibit the biosynthesis of platelet-activating factor and LTB4 in purified human neutrophils.
(§5) A leukocyte enriched blood sample obtained from a healthy donor is procured by leukophoresis using a Haemonetics model 30+ blood processor (Biological Specialties, Inc., Lansdale, Pa.). The top "platelet-rich" layer is removed after a low speed spin (35 xg, 15 min, 25° C.) of the sample. The remaining cell suspension is centrifuged (400 xg, 10 min, 25° C.) to sediment the remaining cells. The supernatant is discarded and the cell pellet resuspended in 120 ml HBSS (without Ca^++ /Mg^++). The cell suspension is subjected to ficoll-hypaque sedimentation (Histopaque 1077, 400 xg, 30 min, 25° C). Contaminating erythrocytes are lysed by hypotonic shock (1 min). The cells are then washed once with 40 ml of HBSS and resuspended with HBSS (without Ca^++ /Mg^++) to a concentration of 2.5×10^7 cells/ml for further use. Greater than 95% purity is obtained, as assessed by microscopic examination.
(§6) One ml of human PMN (2.5×10^7 cells/ml) is incubated with vehicle or drugs (10 μl) for 10 minutes at 30° C. After preincubation, an equal volume of HBSS (1 ml) containing 2.4 mM CaCl2, 6 μM calcium ionophore A23187 and 50 μCi[^3 H]-acetate is then incubated at 30° C. for 15 minutes. An aliquot (100 μl) of the reaction mixture is taken out and mixed with 900 μl of 15% ethanol. LTB4 is extracted by using solid phase extraction on reverse phase C18 columns to remove excess [^3 H]-acetate and PAD. […] The quantity of LTB4 in the sample is obtained from RIA determination. […] [^3 H]-PAF is resolved from other phospholipids by TLC on RPC18 plates with a solvent system of chloroform:methanol:water (2:3:1, v/v/v) and is quantitated using a Berthold automated TLC linear analyzer.
(§7) Data presented are the mean +/- s.d. of the values relative to control A23187 stimulated cells for each experiment assayed in triplicate. Percent inhibition when used is calculated as: […]

Experiment [4] concerns Platelet-Activating Factor Biosynthesis in Human Polymorphonuclear Neutrophils. Briefly: Inhibition of platelet-activating factor (PAF) biosynthesis in human polymorphonuclear neutrophils (in vitro phospholipase A2 assay). The experiment is classed as cell-based. The following applies: Polymorphonuclear neutrophil, A23187 stimulated human PMN. The protocol: as §4, §5, §6, §7

In experiment [5] the target is T1, Human Synovial PLA2 (Homo sapiens, UniProt P14555).
T1 construct: Purified human synovial fluid; from tissue; host or cells: human synovial fluid (purified)
T1 sequence (P14555 21-144): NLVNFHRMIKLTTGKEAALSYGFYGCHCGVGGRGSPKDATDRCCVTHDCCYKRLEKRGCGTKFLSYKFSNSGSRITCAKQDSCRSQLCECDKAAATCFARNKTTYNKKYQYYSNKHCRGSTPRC
Briefly: In vitro isolated phospholipase A2 assay, arachidonic acid release from 3H-AA E. coli substrate, human synovial fluid PLA2. The experiment is classed as biochemical. The note with it: read-out: % Inhibition at 10 μM HSF (human synovial fluid). As to the method:
(§8) The compounds of the invention are tested in an in vitro isolated phospholipase A2 assay to determine the ability of the test compounds to inhibit the release of arachidonic acid from an arachidonic acid-containing substrate by the action of phospholipase A2 enzyme from human and non-human sources.
(§9) Into a 15 mL polypropylene tube are added the following: […]
(§10) ^3 H-AA E. coli substrate^1
(§11) Tris-HCl (0.5M) pH 7.5^3
(§12) PLA2 25 Volume yielding 12%
(§13) *pre-incubate at room temperature 30 min prior to substrate addition.
(§14) ^1 Prepared by adding 2 mL deionized and distilled water to 2 mL
(§15) ^5 Stock 10 mM prepared in dimethyl sulfoxide. Make 1:2 dilution with
(§16) ^6 Two human PLA2 enzymes are used:
b) Purified human synovial fluid.
(§17) Incubate the 100μL reaction mixture for 10 minutes at 37° C. in a shaking water bath. The reaction is terminated by the addition of 2 mL tetrahydrofuran, followed by vortexing. NH2 columns ([…]--Analytichem International) are conditioned with 0.5 mL tetrahydrofuran followed by 0.5 mL tetrahydrofuran/water (2 mL:0.1 mL, v/v).
(§18) The sample is loaded onto the columns and slowly drawn through them. The hydrolyzed arachidonic acid retained in the columns is eluted therefrom with 1 mL tetrahydrofuran/glacial acetic acid (2%). The arachidonic acid is transferred to scintillation vials and quantitated by β-counting analysis. […]

The target of experiment [6] is T2, Human Platelet PLA2 (Homo sapiens, UniProt P14555).
T2 construct: Semipurified human platelet acid extract PLA2; from tissue; host or cells: human platelets (semipurified acid extract)
T2 sequence (P14555 21-144): T1 sequence (P14555 21-144)
As to the kind of experiment: In vitro isolated phospholipase A2 assay, arachidonic acid release from 3H-AA E. coli substrate, human platelet PLA2. In kind it is biochemical. The following applies: read-out: % Inhibition at 10 μM HP (human platelet). The protocol:
as §8, §9, §10, §11, §12, §13, §14, §15, §16
a) Semipurified human platelet acid extract PLA2 (in 10 Mm sodium
as §17, §18

The mark [7] stands for this setting: 0.5 μM, mouse peritoneal macrophages.

Each structure is given as a SMILES string.

Take `O=C(COCC1CCCCCCCCCCC1)C1=C(O)CSC1=O` [Example 16]: the “PGE2 % Inhibition” value in experiment [1] (0.5 μM) came out at 77.0%. In experiment [2] (setting [7]), the “LTC4 % Inhibition” value stood at 33.0%.
As a reminder, the inhibition is the change of the read-out against control, counted positive when it falls. On to `CN1CC(O)=C(C(=O)CCC2CCCCCCCCCCC2)C1=O` [Example 3, 3-(3-cyclododecyl-1-oxopropyl)-1.5-dihydro-4-hydroxy-1-methyl-1H-pyrrolin-2-one], for which the inhibition at 0.5 µM in experiment [1] is 75.9%; in experiment [2] (setting [7]), 66.2%. Further, the inhibition at 10 µM in experiment [3] is 90.4%; in experiment [4] it was 64.4%.
The term IC50 denotes the concentration needed to halve the response being measured. In experiment [2] (reference compounds), `CCCCCC#CCC#CCC#CCC#CCCCC(=O)O` [ETYA, reference compound] had an IC50 of 440 nM.
With `O=C(NCCC1CCCCCCCCCCC1)C1=C(O)COC1=O` [Example 15, 4-Hydroxy-2-oxo-2,5-dihydro-furan-3-carboxylic acid-2-cyclododecyl-ethylamide], the results for the inhibition at 0.5 µM in experiment [1] and in experiment [2] (setting [7]) were 52% and 25.9%, respectively.
On to `O=C(CCC1CCCCCCCCCCC1)C1=C(O)COC1=O` [Example 1, 3-(3-Cyclododecyl-1-oxopropyl)-4-hydroxy-2(5H)-furanone], for which the inhibition at 0.5 µM turned out to be 46.7% in experiment [1] and 29% in experiment [2] (setting [7]). The inhibition at 10 µM in experiment [5] was 41.9%; in experiment [3], 95.1%; in experiment [4], 84.3%; in experiment [6], -3.7%.
For `O=C(CCC1CCCCCCCCCCC1)C1=C(O)CSC1=O` [Example 2, 3-(3-cyclododecyl-1-oxopropyl)-4-hydroxy-2(5H)-thiophenone], the values for the inhibition at 0.5 µM in experiment [1] and in experiment [2] (setting [7]) were 97.1% and 76.1%, respectively. For the same molecule, the inhibition at 10 µM was determined as 53% in experiment [5], 69.6% in experiment [3], 79.2% in experiment [4] and 18.2% in experiment [6].
